Here are results for nine compounds from PubChem BioAssay (NCI).

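Exposure lasted 48 hours, with cells grown in 96-well plates and compounds tested at five concentrations. GI50 marks 50% less growth. TGI marks complete inhibition of growth.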

Holding throughout (experiment): NCI tumour cell line growth inhibition, 48 h
In assay [1] the test system is T-47D breast.
Assay [2] relates to OVCAR-5 ovarian.
In assay [3] the test system is SNB-19 CNS.
For assay [4], the system named is HCC-2998 colon.
In assay [5] the test system is SK-MEL-2 melanoma.
Assay [6] relates to NCI/ADR-RES ovarian.
Assay [7] deals with CAKI-1 renal.
Assay [8] concerns SF-539 CNS.
Assay [9] concerns HCT-116 colon.
Assay [10] concerns EKVX NSCLC.

As to `COc1ncnc2c(-c3ccccc3)cn(COCc3ccccc3)c12`, the GI50 in assay [1] was 3.04 µM; in assay [2], 47.8 µM; in [3], 6.53 µM; in assay [4], 4.01 µM; in assay [5], 2.08 µM; in assay [6], 3.17 µM. For the same compound, the GI50 in [7] was 3.02 µM; in [8] it was 11.8 µM; in assay [9] it was 2.67 µM; in assay [10], 2.37 µM. Moreover, the TGI in assay [1] is 9.84 µM; in [2] it was over 100 µM; in assay [3], over 100 µM; in [4], over 100 µM; in [5], 4.99 µM; in assay [6], 19.1 µM. Further, the TGI was over 100 µM in assay [7], over 100 µM in assay [8], 23 µM in [9] and over 100 µM in assay [10].

`C=C(CN1C(=O)CN(C)C1=O)c1ccc(C(=O)Nc2ccccc2N)cc1`: the GI50 in [1] was 2.55 µM; in assay [2], 3.56 µM; in assay [3], 38.5 µM; in assay [4], 22 µM; in assay [5] it was 30.9 µM; in assay [6], 12.5 µM. Further, the GI50 in assay [7] is 18.6 µM; in [8], 36.2 µM; in assay [9], 6.7 µM; in assay [10], 82.3 µM. Besides, the TGI in [1] is 22.2 µM; in assay [2], 85.2 µM; in assay [3] it was over 100 µM; in [4] it was 54.3 µM; in assay [5], over 100 µM; in assay [6], over 100 µM. Moreover, the TGI was 58.7 µM in [7], over 100 µM in assay [8], 36.3 µM in assay [9] and over 100 µM in assay [10].

As to `O=C1C(Cl)=C(Nc2cccc(F)c2)C(=O)N1Cc1ccc(Cl)cc1`, the GI50 is 3.57 µM in [1]; 4.58 µM in assay [2]; 2.57 µM in [3]; 0.935 µM in assay [4]; 5.96 µM in assay [5]; 0.426 µM in assay [6]. Further, the results for the GI50 in assay [7], in assay [8] and in [9] were 1.71 µM, 1.03 µM and 0.392 µM, respectively. Also, the TGI in assay [1] is 27.7 µM; in assay [2], 22.4 µM; in assay [3] it was 16.1 µM; in assay [4], 4.88 µM; in [5], over 28.4 µM; in assay [6], 5.61 µM. For the same compound, the TGI in assay [7] came out at 13.8 µM; in assay [8], 4.04 µM; in [9], 2.7 µM.

With `COc1ccc(/C=C/C(=O)c2cc(OC)c(OC)c(OC)c2)cc1OCc1cn(Cc2ccc(F)cc2)nn1`, the GI50 in [1] was 3.05 µM; in assay [2] it was 3.22 µM; in assay [3], 4.42 µM; in [4], 3.42 µM; in assay [5] it was 10.6 µM; in [6], 2.99 µM. Further, the GI50 in assay [7] is 4.79 µM; in assay [8], 2.49 µM; in [9], 2.38 µM. Also, the TGI is over 100 µM in assay [1]; over 100 µM in assay [2]; over 100 µM in [3]; 11.5 µM in [4]; 41 µM in [5]; over 100 µM in assay [6]. Also, the TGI was over 100 µM in assay [7], 7.83 µM in assay [8] and 10.7 µM in assay [9].

On to `COc1cc(C(O)CCBr)c(OC)cc1C` (configuration not stated), for which the TGI was over 100 µM in [1]; over 100 µM in assay [2]; over 100 µM in [3]; 68.2 µM in [5]; over 57.6 µM in assay [6]; over 100 µM in assay [7]. The TGI in assay [8] is 31.3 µM; in [9] it was over 100 µM; in assay [10], over 100 µM.

With `O.O.[NH-]C1(C(=O)O)CCCC1.[NH-]C1(C(=O)O)CCCC1.[Ni+2]`, in assay [1], the GI50 is over 100 µM. Besides, the TGI in assay [1], in assay [2], in assay [3], in assay [5], in assay [6] and in [7] was over 100 µM each time. Besides, the TGI in [8], in assay [9] and in assay [10] was over 100 µM throughout.

With `CN1CCC2(CC1)ONC1=NCCN12`, the GI50 was 99.8 µM in assay [1]; over 100 µM in assay [3]; 15.8 µM in [4]; over 100 µM in assay [5]; 19.6 µM in [6]; 30.6 µM in [7]. The GI50 in assay [8] is 47.5 µM; in [9] it was 32.4 µM; in assay [10] it was 92.5 µM. Also, the TGI is over 100 µM in assay [1]; over 100 µM in assay [3]; 43.8 µM in assay [4]; over 100 µM in assay [5]; 70.3 µM in [6]; 90 µM in assay [7]. Moreover, the TGI in assay [8], in assay [9] and in assay [10] was over 100 µM in each case.

For the compound `N#Cc1ccc(OCc2nc(N)nc(N)c2-c2ccc(Cl)c(Cl)c2)cc1`, the GI50 is 9.64 µM in [1]; 2.38 µM in assay [2]; 2.79 µM in assay [3]; 3.19 µM in assay [4]; 3.55 µM in assay [5]; 1.55 µM in [6]. Besides, the GI50 in assay [7] was 3.09 µM; in assay [8], 0.802 µM; in assay [9], 0.552 µM. Besides, the TGI in [1] is over 100 µM; in assay [2], over 100 µM; in assay [3] it was over 100 µM; in assay [4] it was over 100 µM; in assay [5] it was 22 µM; in [6], over 100 µM. For the same compound, the TGI in assay [7] was over 100 µM; in assay [8], 37.5 µM; in assay [9], over 100 µM.

`OC(Cc1ccncc1)C(Cl)(Cl)Cl` (configuration not stated): the GI50 is over 100 µM in [1]; over 100 µM in [2]; over 100 µM in [3]; over 100 µM in assay [5]; over 100 µM in assay [6]; 32.4 µM in assay [7]. Also, the GI50 was over 100 µM in assay [8] and 86.3 µM in [10]. For the same compound, the TGI in assay [1], in [2], in [3], in [5], in assay [6] and in assay [7] was over 100 µM throughout. Also, the TGI in [8] and in assay [10] was over 100 µM in each case.
